Values after ≈ are worked out from the molar mass of the structure shown.
What was measured:
Salmonella typhi [1] = experiment: Antimicrobial activity against Salmonella enterica serovar Typhi isolate 080048Ty by broth microdilution method; format: functional, Salmonella enterica subsp. enterica serovar Typhi
Salmonella typhi [2] = experiment: Antimicrobial activity against Salmonella enterica serovar Typhi isolate 080048Ty transconjugant harboring bla CTX-M-15 gene by broth microdilution method; format: functional, Salmonella enterica subsp. enterica serovar Typhi
Salmonella typhi [3] = experiment: Antimicrobial activity against Salmonella enterica serovar Typhi isolate 080049Ty by broth microdilution method; format: functional, Salmonella enterica subsp. enterica serovar Typhi
Escherichia coli [4] = experiment: Antimicrobial activity against Escherichia coli W3110 transformant harboring bla CTX-M-15 gene by broth microdilution method; format: functional
Escherichia coli [5] = experiment: Antimicrobial activity against Escherichia coli W3110 transformant harboring bla CTX-M-15 gene by broth microdilution method in presence of beta-lactamase inhibitor clavulanic acid; format: functional
Salmonella typhi [6] = experiment: Antimicrobial activity against Salmonella enterica serovar Typhi isolate 080049Ty by broth microdilution method in presence of beta-lactamase inhibitor clavulanic acid; format: functional, Salmonella enterica subsp. enterica serovar Typhi
Salmonella typhi [7] = experiment: Antimicrobial activity against Salmonella enterica serovar Typhi isolate 080048Ty by broth microdilution method in presence of beta-lactamase inhibitor clavulanic acid; format: functional, Salmonella enterica subsp. enterica serovar Typhi
Salmonella typhi [8] = experiment: Antimicrobial activity against Salmonella enterica serovar Typhi isolate 080048Ty transconjugant harboring bla CTX-M-15 gene by broth microdilution method in presence of beta-lactamase inhibitor clavulanic acid; format: functional, Salmonella enterica subsp. enterica serovar Typhi

CC1(C)S[C@@H]2[C@H](NC(=O)[C@H](N)c3ccccc3)C(=O)N2[C@H]1C(=O)O [AMPICILLIN]
MIC (Salmonella typhi [1]): < 2 µg/mL | MIC (Salmonella typhi [2]): > 64 µg/mL | MIC (Salmonella typhi [3]): > 64 µg/mL | MIC (Escherichia coli [4]): > 64 µg/mL

CCn1cc(C(=O)O)c(=O)c2ccc(C)nc21 [NALIDIXIC ACID]
MIC (Salmonella typhi [1]): > 64 µg/mL | MIC (Salmonella typhi [2]): > 64 µg/mL | MIC (Salmonella typhi [3]): > 64 µg/mL | MIC (Escherichia coli [4]): 32 µg/mL (≈ 138 µM)

CC(C)(O/N=C(\C(=O)N[C@@H]1C(=O)N2C(C(=O)[O-])=C(C[n+]3ccccc3)CS[C@H]12)c1csc(N)n1)C(=O)O [CEFTAZIDIME]
MIC (Escherichia coli [5]): 0.25 µg/mL | MIC (Salmonella typhi [1]): 1 µg/mL (≈ 1.83 µM) | MIC (Salmonella typhi [2]): 64 µg/mL (≈ 117 µM) | MIC (Salmonella typhi [6]): 0.25 µg/mL | MIC (Salmonella typhi [7]): 0.25 µg/mL | MIC (Salmonella typhi [8]): 0.25 µg/mL | MIC (Salmonella typhi [3]): 64 µg/mL (≈ 117 µM) | MIC (Escherichia coli [4]): 64 µg/mL (≈ 117 µM)

CO/N=C(\C(=O)N[C@@H]1C(=O)N2C(C(=O)O)=C(COC(C)=O)CS[C@H]12)c1csc(N)n1 [CEFOTAXIME]
MIC (Escherichia coli [5]): < 0.125 µg/mL | MIC (Salmonella typhi [1]): 0.125 µg/mL (≈ 0.274 µM) | MIC (Salmonella typhi [2]): > 128 µg/mL | MIC (Salmonella typhi [6]): < 0.125 µg/mL | MIC (Salmonella typhi [7]): < 0.125 µg/mL | MIC (Salmonella typhi [8]): < 0.125 µg/mL | MIC (Salmonella typhi [3]): > 128 µg/mL | MIC (Escherichia coli [4]): > 128 µg/mL

CO/N=C(\C(=O)N[C@@H]1C(=O)N2C(C(=O)O)=C(CSc3nc(=O)c(O)nn3C)CS[C@H]12)c1csc(N)n1 [CEFTRIAXONE]
MIC (Salmonella typhi [1]): 0.125 µg/mL (≈ 0.225 µM) | MIC (Salmonella typhi [2]): > 128 µg/mL | MIC (Salmonella typhi [3]): > 128 µg/mL | MIC (Escherichia coli [4]): > 128 µg/mL

From ChEMBL document CHEMBL1649321, “Plasmid-mediated resistance to cephalosporins in Salmonella enterica serovar Typhi” (2010)
